Experimental data: PMC2812657 (Biochemical and biophysical research communications, 2009)

How the values were obtained:
GSK3β = GSK3β (Homo sapiens, UniProt P49841); test: in vitro kinase profiling assay; format: biochemical
GSK3α = GSK3α (Homo sapiens, UniProt P49840); test: in vitro kinase profiling assay
Sequence of GSK3α (P49840 2-483): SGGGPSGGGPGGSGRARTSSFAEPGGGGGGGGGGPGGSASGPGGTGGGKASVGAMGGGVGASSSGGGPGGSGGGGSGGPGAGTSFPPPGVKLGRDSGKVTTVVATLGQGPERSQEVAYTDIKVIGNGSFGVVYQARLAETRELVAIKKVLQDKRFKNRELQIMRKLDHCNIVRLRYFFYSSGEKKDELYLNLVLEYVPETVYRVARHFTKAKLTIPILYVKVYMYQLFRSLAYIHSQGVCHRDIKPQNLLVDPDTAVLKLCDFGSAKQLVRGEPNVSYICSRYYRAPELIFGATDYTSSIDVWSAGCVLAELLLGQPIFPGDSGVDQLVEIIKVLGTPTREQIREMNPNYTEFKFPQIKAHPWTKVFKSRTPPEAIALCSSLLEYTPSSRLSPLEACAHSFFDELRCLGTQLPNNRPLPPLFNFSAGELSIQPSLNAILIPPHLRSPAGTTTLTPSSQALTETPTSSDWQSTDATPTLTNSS

Sequence of GSK3β (P49841 whole entry): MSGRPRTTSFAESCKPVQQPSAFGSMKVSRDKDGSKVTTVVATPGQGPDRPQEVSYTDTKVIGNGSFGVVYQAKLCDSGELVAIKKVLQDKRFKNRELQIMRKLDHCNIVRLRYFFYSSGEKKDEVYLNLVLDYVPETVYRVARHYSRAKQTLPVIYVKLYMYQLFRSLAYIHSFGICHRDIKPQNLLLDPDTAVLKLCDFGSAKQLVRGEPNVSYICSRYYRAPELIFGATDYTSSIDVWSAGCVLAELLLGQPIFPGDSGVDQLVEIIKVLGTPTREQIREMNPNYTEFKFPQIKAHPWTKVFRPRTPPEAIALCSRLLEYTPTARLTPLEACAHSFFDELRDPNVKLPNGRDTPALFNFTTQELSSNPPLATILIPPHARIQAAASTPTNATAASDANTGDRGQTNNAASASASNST

IC50 (GSK3β): 410 nM
IC50 (GSK3α): 88 nM
Structure (SMILES): Nc1cccc(-c2cc3c(Oc4cccc(O)c4)ncnc3[nH]2)c1 [TWS119]
